The subject of test [1] is intestinal ischemia reperfusion injury (IRI). Description: Mouse model of intestinal ischemia reperfusion injury (superior mesenteric artery occlusion). Format: in vivo. The settings on record: for Circulating neutrophil numbers: IRI groups, WT mice; for Circulating neutrophil numbers / Mucosal (villi) damage, histopathological score of H&E-stained ileum / Neutrophil infiltration into the ileum (esterase-stained neutrophils, myeloperoxidase): oral gavage; for Mucosal (villi) damage, histopathological score of H&E-stained ileum / Neutrophil infiltration into the ileum (esterase-stained neutrophils, myeloperoxidase): WT IRI groups; for Circulating neutrophil counts: sham-operated mice, oral gavage 48 h, 24 h and 1 h prior to surgery, mean ± SEM. An excerpt: Specific pathogen-free (SPF) conventional C57BL/6J (WT) mice were obtained from the […] (ARC) and maintained at The University of Queensland Biological Resources Animal Facilities under specific pathogen-free conditions.
FFA2^−/− knockout mice were obtained from Monash University and bred at The University of Queensland Biological Resources Animal Facilities under SPF conditions. Male mice 10–12 weeks weighing 20–30 g were used for all experiments. All experiments were performed in accordance with the guidelines and approval of The University of Queensland Animal Ethics Committee.
After 35 minutes the ligature was removed to allow for a reperfusion period of 150 minutes. […] Mice were orally gavaged with ligand 48 hours, 24 hours and 1 hour prior to surgery. Mice were euthanised and small intestinal tissue or whole blood [collected in 1 mg/mL EDTA and 0.1 mg/mL nafamostat mesylate (FUT-175)] was collected for further analysis.

Test [2] deals with T1, hFFA2 (Homo sapiens, UniProt O15552).
T1 construct: host or cells: CHO-K1
T1 sequence (O15552 1-330): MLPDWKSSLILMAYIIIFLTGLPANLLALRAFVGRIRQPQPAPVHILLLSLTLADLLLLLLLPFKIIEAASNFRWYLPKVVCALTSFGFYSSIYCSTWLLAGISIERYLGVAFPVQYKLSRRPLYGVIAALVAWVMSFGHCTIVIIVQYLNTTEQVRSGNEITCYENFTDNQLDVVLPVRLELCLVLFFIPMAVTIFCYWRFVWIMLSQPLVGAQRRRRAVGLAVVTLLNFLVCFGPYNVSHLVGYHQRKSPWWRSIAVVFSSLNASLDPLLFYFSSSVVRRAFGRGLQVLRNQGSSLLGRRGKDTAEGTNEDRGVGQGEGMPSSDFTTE
Description: LANCE Ultra cAMP assay, inhibition of forskolin-induced cAMP, in CHO cells stably expressing hFFA2. The class given is cell-based. The note with it: for Emax: CHO; for EC50: read-out: cAMP pEC50 (converted). Here is the method:
(§1) CHO-K1, stably expressing human FFA2 (CHO-FFA2) was purchased from DiscoverX Corporation. CHO-FFA2 cells were cultured in a buffer of Ham’s F12, 10% FBS, 1% penicillin streptomycin and 800 μg/mL of G418 (Geneticin) (Invitrogen Life Technologies). Cells were passaged when 70–80% confluent using 0.05% trypsin with 1 mM EDTA in phosphate-buffered saline (PBS), pH 7.4. All cells in culture, once seeded, were incubated at 37 °C with 5% CO2.
The LANCE Ultra cAMP homogeneous time resolved resonance energy transfer (TR-FRET) immunoassay (PerkinElmer) provides a highly sensitive and robust method for the detection of cAMP. Briefly, cells were re-suspended in stimulation buffer (1 x HBSS, 5 mM HEPES, 0.5 mM IBMX, 0.1% BSA (pH7.4)) and transferred to 384-proxiplate (PerkinElmer) at a density of 2000 cells/well. Cells were stimulated with agonist and forskolin (5 μM), where appropriate, and incubated for 30 min. EucAMP tracer and ULight-anti-cAMP solutions were added to the cells and incubated for 1 hour at room temperature. Time- resolved FRET signals were measured after excitation at 320 nm on the EnVision. All data were normalized to the functional response obtained with 1.67 mM sodium acetate.

Test [3] has as its target T1, hFFA2. Description: AlphaScreen SureFire pERK1/2 (Thr202/Tyr204) assay in CHO cells stably expressing hFFA2. The note with it: for pERK1/2 response (in words): ligand alone; for Emax: CHO. Format: cell-based. Here is the method:
as §1
(§2) To measure pERK1/2 we utilised the high throughput AlphaScreen SureFire pERK1/2 (Thr202/Tyr204) Assay Kit (PerkinElmer)[42]. Detection of pERK1/2 is enabled by immuno-sandwich capture of endogenous pERK1/2 in cell lysates. Antibody-coated AlphaScreen beads generate a highly amplified signal when near due to binding of pERK1/2. Cells were seeded at 50,000 cells/well in a 96 well tissue culture plate and incubated for 24 hours at 37 °C. Cells were then incubated in serum free media overnight. Test compounds were added to the cells and incubated for 10 min at room temperature before cells were lysed and assayed for pERK1/2 using the AlphaScreen-based detection kit according to the manufacturer’s protocol (PerkinElmer).
A general note: In Alpha technology, singlet oxygen from a donor bead excites a nearby acceptor bead.

Test [4] relates to parental CHO-K1 cells. Description: Ca^2+, pERK1/2 and cAMP assays on the parental CHO-K1 cell line (specificity control). Format: cell-based, Chinese Hamster. The note with it: highest concentration of ligand. As for the experimental part: These cells were cultured in Ham’s F12, 10% FBS and 1% penicillin streptomycin. Cells were passaged when 70–80% confluent using 0.05% trypsin: EDTA in phosphate-buffered saline (PBS), pH 7.4. All cells in culture, once seeded, were incubated at 37 °C with 5% CO2.
(§3) Fluo-4 Direct assay was preformed according to manufacturer’s instructions with additional wash steps and read on a Fluorescent Imaging Plate Reader (FLIPR) (Molecular Devices, California). Briefly, 10,000 cells were seeded/well in 10 μL of media in a 384 well block with a clear bottom plate and incubated overnight at 37 °C. An equivalent volume of 2x Flou-4 Direct calcium reagent was added to each well and incubated for 30 min at 37 °C and a further 30 min at room temperature. Ligand addition was carried out on the FLIPR instrument whilst fluorescence was measured at excitation 494 nm and emission at 516 nm for five minutes to enable capture of the fast calcium response.
as §2
The LANCE Ultra cAMP homogeneous time resolved resonance energy transfer (TR-FRET) immunoassay (PerkinElmer) provides a highly sensitive and robust method for the detection of cAMP. […] Time- resolved FRET signals were measured after excitation at 320 nm on the EnVision. […]
For orientation: Changes in cAMP serve as a functional read-out for many G protein-coupled receptors.

For test [5], the target named is T1, hFFA2. Description: Fluo-4 Direct Ca^2+ flux assay in CHO cells stably expressing hFFA2. Format: cell-based. The settings on record: for Ca^2+ response (in words): ligand alone. As for the experimental part:
as §1, §3

The subject of test [6] is FFA2. On the set-up: method as in earlier work. The settings on record: cited from earlier work.
Where [7] appears, read: antagonist mode, inhibition of ERK activation by 2 mM acetate, read-out: pERK1/2 pEC50 (Antagonist) (converted).
Setting [8] is: 2CTAP + Acetate (2CTAP dose response in the presence of 2 mM acetate, Fig. 6A), read-out: Ca^2+ pEC50 (converted).
Setting [9] is: antagonist mode, concentration-dependent decrease in Ca^2+, read-out: Ca^2+ pEC50 (Antagonist) (converted).
Setting [10] is: inhibition of forskolin-induced cAMP, ligand alone, expressed as a percentage of the maximal response from acetate.
[11] abbreviates: inhibition of forskolin-induced cAMP, ligand alone (agonist mode), CHO-hFFA2.
[12] abbreviates: + PTX, read-out: pERK1/2 pEC50 (converted).
Setting [13] is: + PTX, percentage of the maximal response from acetate.
Setting [14] is: ligand alone (agonist mode), CHO-hFFA2, expressed as a percentage of the maximal response from acetate.
The mark [15] stands for this setting: ligand alone (agonist mode), CHO-hFFA2, read-out: pERK1/2 pEC50 (converted).
The mark [16] stands for this setting: ligand alone (agonist mode), CHO-hFFA2.
Where [17] appears, read: 4CMTB at 20 µM on an acetate dose response curve.
The mark [18] stands for this setting: 4CMTB below 1 µM on an acetate dose response curve.

Structures are written as SMILES.

Consider `O=C(O)CC(C(=O)Nc1nc(-c2ccccc2Cl)cs1)c1ccccc1` (racemic) [R/S-2CTAP, 4-((4-(2-chlorophenyl)thiazole-2-yl)amino)-4oxo-3-phenylbutanoic acid], for which the “Protective effects in IRI in the absence of FFA2” value in test [1] (FFA2^−/− mice, IRI) is “abolished”. In addition, in test [1], the Circulating neutrophil numbers result is “comparable to vehicle control IRI-groups”; the “Mucosal (villi) damage, histopathological score of H&E-stained ileum” value is listed as “mucosal damage was significantly reduced”; the “Neutrophil infiltration into the ileum (esterase-stained neutrophils, myeloperoxidase)” value (from here on “Neutrophil infiltration into the ileum”) is listed as “did not reduce neutrophil infiltration below the IRI group”. Moreover, the “forskolin-induced cAMP response (in words)” value in test [2] (ligand alone, CHO-hFFA2) was “no effect”. The EC50 in test [3] (setting [7]) was 15.8 µM. In test [3] (CHO-hFFA2), the “pERK1/2 response (in words)” value is recorded as “no effect”. Besides, in test [4], the “Response in parental CHO-K1 cells” value is “No response”. Also, the EC50 in test [5] (setting [8]) is 0.631 µM. In addition, the EC50 in test [5] (setting [9]) is 1 µM. Further, in test [5] (CHO-hFFA2), the “Ca^2+ response (in words)” value was “concentration-dependent decrease in Ca^2+”. Moreover, the “Concentration of maximal response in the GTPγS assay” value in test [6] is given as 60 nM.
Take `CC(C)C(C(=O)Nc1nccs1)c1ccc(Cl)cc1` (racemic) [R/S-4CMTB, 2-(4-chlorophenyl)-3-methyl-N-(thiazole-2-yl)butanamide]: the Emax in test [2] (setting [10]) was 83%; in test [3] (setting [13]) it was 20%; in test [3] (setting [14]), 85%. Also, the EC50 in test [2] (setting [11]) is 0.1 µM; in test [3] (setting [12]), 20 µM; in test [3] (setting [15]) it was 1.58 µM. Besides, the “Response in parental CHO-K1 cells” value in test [4] is recorded as “No response”. Also, in test [5] (CHO-hFFA2), the “Ca^2+ response (in words)” value was “did not induce a Ca^2+ response”.
Turning to `CC(=O)O` [Acetate], the “cAMP pEC50” value in test [2] (setting [11]) is on record as 3.9. Moreover, the “cAMP Emax” value in test [2] (setting [10]) is 100. Further, in test [3] (setting [16]), the “pERK1/2 pEC50” value is given as 3.6. Besides, the “pERK1/2 Emax” value in test [3] (setting [14]) is listed as 100. The “Response in parental CHO-K1 cells” value in test [4] is reported as “No response”. Moreover, in test [5] (setting [16]), the “Ca^2+ pEC50” value is recorded as 3.8. In test [5] (setting [14]), the “Ca^2+ Emax” value was 100.
Take `O=C(O)C[C@@H](C(=O)Nc1nc(-c2ccccc2Cl)cs1)c1ccccc1` [R-2CTAP, 4-((4-(2-chlorophenyl)thiazole-2-yl)amino)-4oxo-3-phenylbutanoic acid]: the “forskolin-induced cAMP response (in words)” value in test [2] (ligand alone, CHO-hFFA2) is reported as “no effects”. Also, the EC50 in test [3] (setting [7]) is 2.51 µM; in test [5] (setting [8]), 0.251 µM; in test [5] (setting [9]), 0.251 µM. The “pERK1/2 response (in words)” value in test [3] (CHO-hFFA2) is “no effects”. In addition, the “Ca^2+ response (in words)” value in test [5] (CHO-hFFA2) is “decreased Ca^2+”.
For `CC(C)[C@@H](C(=O)Nc1nccs1)c1ccc(Cl)cc1` [R-4CMTB, 2-(4-chlorophenyl)-3-methyl-N-(thiazole-2-yl)butanamide], the Circulating neutrophil numbers result in test [1] is “comparable to vehicle control IRI-groups”. Besides, the “Neutrophil infiltration into the ileum” value in test [1] is “did not reduce neutrophil infiltration below the IRI group”. Moreover, in test [1], the Circulating neutrophil counts is 0.81 × 10^6 ± 0.11. Also, the Emax was found to be 74% in test [2] (setting [10]), 16% in test [3] (setting [13]) and 60% in test [3] (setting [14]). The EC50 in test [2] (setting [11]) was 6.31 µM; in test [3] (setting [12]), 20 µM; in test [3] (setting [15]), 10 µM. Moreover, the “Allosteric modulation of acetate Ca^2+ response” value is listed as “mild effect on the potency of acetate but did not increase the efficacy” in test [5] (setting [17]) and “negative allosteric modulators” in test [5] (setting [18]). For the same molecule, in test [5] (CHO-hFFA2), the “Ca^2+ response (in words)” value is given as “no effect”.
For the molecule `O=C(O)C[C@H](C(=O)Nc1nc(-c2ccccc2Cl)cs1)c1ccccc1` [S-2CTAP, 4-((4-(2-chlorophenyl)thiazole-2-yl)amino)-4oxo-3-phenylbutanoic acid], the “forskolin-induced cAMP response (in words)” value in test [2] (ligand alone, CHO-hFFA2) is on record as “no effects”. Besides, the values for the EC50 in test [3] (setting [7]), in test [5] (setting [8]) and in test [5] (setting [9]) were 39.8 µM, 1.58 µM and 2 µM, respectively. The “pERK1/2 response (in words)” value in test [3] (CHO-hFFA2) is given as “no effects”. The “Ca^2+ response (in words)” value in test [5] (CHO-hFFA2) was “decreased Ca^2+”.
With `CC(C)[C@H](C(=O)Nc1nccs1)c1ccc(Cl)cc1` [S-4CMTB, 2-(4-chlorophenyl)-3-methyl-N-(thiazole-2-yl)butanamide], the Circulating neutrophil numbers entry in test [1] is on record as “comparable to vehicle control IRI-groups”. Besides, the “Mucosal (villi) damage, histopathological score of H&E-stained ileum” value in test [1] was “did not reduce villi damage”. For the same molecule, the “Neutrophil infiltration into the ileum” value in test [1] is “increased neutrophil infiltration into the villi”. Also, the Circulating neutrophil counts in test [1] is 0.92 × 10^6 ± 0.07. The maximum response (Emax) in test [2] (setting [10]) was 99%; in test [3] (setting [13]) it was 22%; in test [3] (setting [14]), 102%; in test [5] (setting [14]), 55%. For the same molecule, the EC50 in test [2] (setting [11]) was 0.158 µM; in test [3] (setting [12]), 15.8 µM; in test [3] (setting [15]) it was 0.794 µM; in test [5] (ligand alone (agonist mode), CHO-hFFA2, read-out: Ca^2+ pEC50 (converted)) it was 2 µM. Also, the “Allosteric modulation of acetate Ca^2+ response” value is “increased both the potency and efficacy of acetate” in test [5] (setting [17]); “negative allosteric modulators” in test [5] (setting [18]).

Broadly, the Emax is the size of the effect at its maximum, as opposed to the concentration needed.
